Experimental data reported in ChEMBL document CHEMBL1201862, “PubChem BioAssay data set” (2004).
Active and inactive are the calls of the source.

How the values were obtained:
[1] = molecular target: Luciferin 4-monooxygenase (Photinus pyralis, UniProt P08659); test: inhibition of purified Photinus pyralis luciferase – biochemical, luminescence, dose response (AID 1891)
[2] = Luminescence Cell-Based Dose Confirmation HTS to Identify Inhibitors of Platelet Dense Granule Release. [Related pubchem assays: 1663 (Primary HTS), 1678 (Summary of Project)]; type: functional
[3] = test system: HEK293; test: EBV LMP1 TES2 canonical NF-kB signalling blockers – cell-based, HEK293, luciferase, cherry-pick, dose response (AID 588343); type: functional; conditions: Homo sapiens
[4] = molecular target: Induced myeloid leukemia cell differentiation protein Mcl-1 (Homo sapiens, UniProt Q07820); type: functional
[5] = molecular target: 26S proteasome non-ATPase regulatory subunit 14 (Homo sapiens, UniProt O00487); test: inhibition of proteasome subunit RPN11 – biochemical, fluorescence polarization, uHTS hits, confirmation (AID 602368); type: functional
[6] = molecular target: 72 kDa type IV collagenase (Homo sapiens, UniProt P08253); test: Dose Response validation of uHTS RPN11 inhibitor hits using a MMP-2 Fluorescence assay.; type: functional
[7] = molecular target: Prothrombin (Bos taurus, UniProt P00735); test: thrombin protease inhibitors – biochemical, fluorescence polarization, uHTS hits, dose response (AID 602369); type: functional
[8] = molecular target: T1, Low molecular weight phosphotyrosine protein phosphatase (Homo sapiens, UniProt P24666); type: functional; conditions: read-out: IC50_Mean;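 also: Dose-response confirmation assay measuring inhibition of LMPTP enzyme activity by fluorescence intensity read-out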
T1 sequence (P24666 whole entry): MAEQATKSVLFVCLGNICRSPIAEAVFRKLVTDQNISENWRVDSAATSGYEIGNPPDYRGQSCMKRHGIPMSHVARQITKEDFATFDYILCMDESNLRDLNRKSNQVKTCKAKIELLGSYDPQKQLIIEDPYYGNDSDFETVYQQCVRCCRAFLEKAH

[9] = molecular target: T2, Fatty acid synthase (Homo sapiens, UniProt P49327); test: inhibition of human FAS-TE enzyme activity – biochemical, endpoint fluorescence intensity, uHTS hits, dose response (AID 624327); type: functional;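 also: fluorescence from hydrolysis of an O-methyl fluorescein acyl ester substrate by the enzyme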
[10] = molecular target: T2, Fatty acid synthase; test: inhibition of human FAS-TE enzyme activity – biochemical, kinetic fluorescence intensity, dose response (AID 624326); type: functional;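 also: rate of fluorescence rise from hydrolysis of a fluorogenic O-methyl fluorescein ester substrate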
[11] = Luminescence Cell-Based Dose Response to Identify Activators of 5'UTR Stem-Loop Driven Prion Protein mRNA Translation in H4-C Neuroglioblastoma Cells. [Related pubchem assays: 1829 (Project Summary), 1814 (Primary HTS)]; type: functional
[12] = Luminescence Cell-Based Dose Response HTS to Identify Activators of Luciferase Translation or Activity in H4 […] Cells. [Related pubchem assays: 1829 (Project Summary), 1814 (Primary HTS)]; type: functional
[13] = test system: H4; test: Luminescence Cell-Based Dose Response HTS to Identify Activators of 5'UTR Stem-Loop Driven Prion Protein mRNA Translation in H4 Neuroglioblastoma Cells. [Related pubchem assays: 1829 (Project Summary), 1814 (Primary HTS)]; type: functional; conditions: Homo sapiens
[14] = Luminescence Cell-Based Dose Response to Identify Activators of Luciferase Translation or Activity in H4-C Neuroglioblastoma Cells. [Related pubchem assays: 1829 (Project Summary), 1814 (Primary HTS)]; type: functional
[15] = Luminescence Cell-Based Dose Confirmation to Identify Activators of 5'UTR Stem-Loop Driven Alpha-Synuclein mRNA Translation in H4 Neuroglioblastoma Cells. [Related pubchem assays: 1829 (Project Summary), 1814 (Primary HTS)]; type: functional
[16] = viability of PTEN-deleted HCT116 cells – cell-based, HCT116 PTEN knockout, dose response (AID 1047); type: functional;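 also: HCT116 colon tumor cells with PTEN knocked out; cells exposed to compound for 60 hours before readout; potency for loss of cell viability measured by luminescence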
[17] = viability of HCT116 lacking mutant beta-catenin – cell-based, human colon tumor, dose response (AID 1045); type: functional;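 also: HCT116 colon tumor cells with beta catenin knocked out; cells exposed to compound for 60 hours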
[18] = test system: INS1; test: INS-1E survival protection against cytokine death – cell-based, luminescence, retest, dose response (AID 449756); type: functional; conditions: Rattus norvegicus;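 also: cell death triggered by IL-1 beta plus TNF-alpha plus IFN-gamma mixture; protective hits raise ATP signal compared with cytokine alone wells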
[19] = molecular target: Paired box protein Pax-8 (Homo sapiens, UniProt Q06710); test: PAX8 transcriptional activity inhibition in RMG-I – RMG-I cells, luciferase, cherry-pick, dose response (AID 687027); type: functional, cell-based;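 also: luciferase reporter driven by Pax8 target thyroperoxidase promoter measured by SteadyGlo luminescence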
[20] = OVCAR-3 cell viability loss – plate reader, dry powder samples, PAX8 inhibitor project, dose response (AID 743044); type: functional, cell-based
[21] = IGROV1 cell killing – plate reader, dry powder samples, PAX8 inhibitor project, dose response (AID 743043); type: functional, cell-based; conditions: IGROV-1
[22] = OVCAR8 cell viability loss – plate reader, dry powder samples, PAX8 project, dose response (AID 743197); type: functional, cell-based; conditions: OVCAR-8
[23] = Luminescence Cell-Based Dose Confirmation HTS to Identify Activators of 5'UTR Stem-Loop Driven Alpha-Synuclein mRNA Translation in H4 Neuroglioblastoma Cells. [Related pubchem assays: 1829 (Project Summary), 1814 (Primary HTS)]; type: functional
[24] = molecular target: T3, Histone-lysine N-methyltransferase NSD2 (Homo sapiens, UniProt O96028); type: biochemical
T3 sequence (O96028 whole entry): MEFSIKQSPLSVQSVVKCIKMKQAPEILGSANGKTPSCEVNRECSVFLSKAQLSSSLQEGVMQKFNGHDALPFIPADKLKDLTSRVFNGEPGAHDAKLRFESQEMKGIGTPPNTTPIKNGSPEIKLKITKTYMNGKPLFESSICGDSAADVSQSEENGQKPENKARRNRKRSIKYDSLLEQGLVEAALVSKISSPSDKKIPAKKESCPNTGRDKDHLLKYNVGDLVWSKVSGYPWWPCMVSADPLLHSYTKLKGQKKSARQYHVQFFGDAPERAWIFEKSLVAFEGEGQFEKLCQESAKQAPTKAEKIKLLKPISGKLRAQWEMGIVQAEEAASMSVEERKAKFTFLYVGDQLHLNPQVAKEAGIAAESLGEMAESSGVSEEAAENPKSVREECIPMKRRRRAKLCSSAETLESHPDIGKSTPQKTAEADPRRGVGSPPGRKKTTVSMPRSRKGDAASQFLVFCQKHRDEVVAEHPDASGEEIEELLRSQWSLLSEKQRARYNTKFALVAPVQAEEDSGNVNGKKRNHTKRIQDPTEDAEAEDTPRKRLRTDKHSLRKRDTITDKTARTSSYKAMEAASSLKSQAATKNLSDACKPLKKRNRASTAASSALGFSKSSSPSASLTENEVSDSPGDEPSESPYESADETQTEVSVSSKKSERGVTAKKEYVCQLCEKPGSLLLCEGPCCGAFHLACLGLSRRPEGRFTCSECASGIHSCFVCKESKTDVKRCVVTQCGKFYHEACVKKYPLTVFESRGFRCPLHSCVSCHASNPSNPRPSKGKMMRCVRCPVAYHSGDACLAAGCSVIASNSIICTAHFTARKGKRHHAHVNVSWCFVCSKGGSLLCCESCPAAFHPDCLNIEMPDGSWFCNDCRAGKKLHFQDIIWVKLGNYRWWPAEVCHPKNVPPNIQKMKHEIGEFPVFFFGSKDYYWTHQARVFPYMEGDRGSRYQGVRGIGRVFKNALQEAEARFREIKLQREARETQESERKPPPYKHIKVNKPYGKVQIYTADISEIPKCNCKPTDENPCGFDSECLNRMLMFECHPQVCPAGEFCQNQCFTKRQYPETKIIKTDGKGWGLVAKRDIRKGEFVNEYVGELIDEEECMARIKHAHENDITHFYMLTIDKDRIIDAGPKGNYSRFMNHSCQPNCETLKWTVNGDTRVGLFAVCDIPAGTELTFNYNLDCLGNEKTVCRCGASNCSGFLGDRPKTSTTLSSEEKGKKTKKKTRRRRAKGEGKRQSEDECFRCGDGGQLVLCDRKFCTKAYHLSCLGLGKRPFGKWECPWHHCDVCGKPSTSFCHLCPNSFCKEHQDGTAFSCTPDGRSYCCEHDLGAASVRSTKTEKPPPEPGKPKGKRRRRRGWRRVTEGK

T2 sequence (P49327 whole entry): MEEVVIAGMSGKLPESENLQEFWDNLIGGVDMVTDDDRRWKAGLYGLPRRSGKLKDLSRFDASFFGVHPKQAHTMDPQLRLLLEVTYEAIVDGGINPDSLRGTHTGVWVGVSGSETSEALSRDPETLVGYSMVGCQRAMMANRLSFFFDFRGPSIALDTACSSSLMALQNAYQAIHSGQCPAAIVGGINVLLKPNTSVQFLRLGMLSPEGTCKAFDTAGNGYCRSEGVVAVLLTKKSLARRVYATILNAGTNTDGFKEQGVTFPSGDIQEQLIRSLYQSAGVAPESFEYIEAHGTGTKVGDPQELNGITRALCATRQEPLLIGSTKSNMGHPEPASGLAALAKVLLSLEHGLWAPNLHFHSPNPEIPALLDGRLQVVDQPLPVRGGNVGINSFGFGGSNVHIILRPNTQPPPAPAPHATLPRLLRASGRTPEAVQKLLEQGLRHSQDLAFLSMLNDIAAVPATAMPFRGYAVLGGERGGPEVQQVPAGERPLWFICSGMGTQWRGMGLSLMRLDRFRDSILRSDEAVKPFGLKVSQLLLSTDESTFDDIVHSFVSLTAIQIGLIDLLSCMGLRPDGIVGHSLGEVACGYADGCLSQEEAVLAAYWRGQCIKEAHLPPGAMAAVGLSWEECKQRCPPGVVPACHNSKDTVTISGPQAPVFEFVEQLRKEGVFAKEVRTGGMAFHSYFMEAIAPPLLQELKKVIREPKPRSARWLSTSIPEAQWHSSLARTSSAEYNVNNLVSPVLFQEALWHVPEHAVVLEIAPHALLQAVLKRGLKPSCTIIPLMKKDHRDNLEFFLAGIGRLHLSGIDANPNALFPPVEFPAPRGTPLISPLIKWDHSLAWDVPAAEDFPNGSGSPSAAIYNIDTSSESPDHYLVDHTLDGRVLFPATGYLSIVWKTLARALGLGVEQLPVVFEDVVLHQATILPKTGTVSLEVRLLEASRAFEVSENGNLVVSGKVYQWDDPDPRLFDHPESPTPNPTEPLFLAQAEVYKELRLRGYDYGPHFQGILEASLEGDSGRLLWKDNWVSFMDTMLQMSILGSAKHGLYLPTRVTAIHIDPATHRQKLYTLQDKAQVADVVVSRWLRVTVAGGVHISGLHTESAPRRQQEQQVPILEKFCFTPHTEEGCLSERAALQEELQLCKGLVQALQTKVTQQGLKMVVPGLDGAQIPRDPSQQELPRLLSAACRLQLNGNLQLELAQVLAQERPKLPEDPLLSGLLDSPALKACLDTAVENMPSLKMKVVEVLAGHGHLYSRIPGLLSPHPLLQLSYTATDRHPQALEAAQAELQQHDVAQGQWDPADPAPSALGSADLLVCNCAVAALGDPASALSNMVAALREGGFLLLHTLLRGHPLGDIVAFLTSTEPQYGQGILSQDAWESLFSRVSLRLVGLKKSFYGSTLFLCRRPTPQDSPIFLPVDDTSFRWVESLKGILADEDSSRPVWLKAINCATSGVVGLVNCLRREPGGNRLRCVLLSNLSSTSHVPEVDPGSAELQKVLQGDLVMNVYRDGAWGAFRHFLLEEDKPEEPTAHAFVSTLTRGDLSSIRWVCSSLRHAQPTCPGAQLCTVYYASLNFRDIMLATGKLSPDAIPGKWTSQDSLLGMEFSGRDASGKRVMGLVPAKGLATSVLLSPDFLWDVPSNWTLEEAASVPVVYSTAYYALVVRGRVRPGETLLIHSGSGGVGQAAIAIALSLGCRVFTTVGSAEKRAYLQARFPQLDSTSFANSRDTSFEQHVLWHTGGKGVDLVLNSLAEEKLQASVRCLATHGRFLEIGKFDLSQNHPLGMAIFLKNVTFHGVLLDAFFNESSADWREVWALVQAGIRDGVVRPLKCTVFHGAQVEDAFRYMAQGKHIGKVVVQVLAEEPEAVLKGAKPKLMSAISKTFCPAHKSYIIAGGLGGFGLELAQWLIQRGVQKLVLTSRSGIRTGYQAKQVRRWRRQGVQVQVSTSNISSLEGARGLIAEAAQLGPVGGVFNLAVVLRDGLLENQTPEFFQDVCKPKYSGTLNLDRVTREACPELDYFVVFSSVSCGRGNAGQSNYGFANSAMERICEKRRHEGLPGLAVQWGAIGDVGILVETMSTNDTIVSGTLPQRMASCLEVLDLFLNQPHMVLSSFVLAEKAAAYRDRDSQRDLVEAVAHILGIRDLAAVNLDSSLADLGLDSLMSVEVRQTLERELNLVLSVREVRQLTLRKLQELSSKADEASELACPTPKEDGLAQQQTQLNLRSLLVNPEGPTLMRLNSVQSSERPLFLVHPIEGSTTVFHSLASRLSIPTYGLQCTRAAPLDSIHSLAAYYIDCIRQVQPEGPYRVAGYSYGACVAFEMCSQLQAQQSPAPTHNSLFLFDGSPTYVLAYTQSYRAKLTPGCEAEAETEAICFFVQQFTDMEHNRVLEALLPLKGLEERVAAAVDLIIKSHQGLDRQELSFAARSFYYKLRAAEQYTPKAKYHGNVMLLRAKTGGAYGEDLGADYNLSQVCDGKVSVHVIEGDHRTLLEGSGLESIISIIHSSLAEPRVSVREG
26S proteasome non-ATPase regulatory subunit 14, sequence (O00487 whole entry): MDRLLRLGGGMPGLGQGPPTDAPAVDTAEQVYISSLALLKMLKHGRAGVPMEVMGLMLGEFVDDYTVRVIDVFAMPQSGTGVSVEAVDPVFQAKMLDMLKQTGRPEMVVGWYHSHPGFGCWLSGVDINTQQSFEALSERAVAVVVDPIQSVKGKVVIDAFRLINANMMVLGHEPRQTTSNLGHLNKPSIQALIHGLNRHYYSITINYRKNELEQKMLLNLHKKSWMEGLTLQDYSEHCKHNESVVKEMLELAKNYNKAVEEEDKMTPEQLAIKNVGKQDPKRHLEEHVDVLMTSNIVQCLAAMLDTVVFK
72 kDa type IV collagenase, sequence (P08253 whole entry): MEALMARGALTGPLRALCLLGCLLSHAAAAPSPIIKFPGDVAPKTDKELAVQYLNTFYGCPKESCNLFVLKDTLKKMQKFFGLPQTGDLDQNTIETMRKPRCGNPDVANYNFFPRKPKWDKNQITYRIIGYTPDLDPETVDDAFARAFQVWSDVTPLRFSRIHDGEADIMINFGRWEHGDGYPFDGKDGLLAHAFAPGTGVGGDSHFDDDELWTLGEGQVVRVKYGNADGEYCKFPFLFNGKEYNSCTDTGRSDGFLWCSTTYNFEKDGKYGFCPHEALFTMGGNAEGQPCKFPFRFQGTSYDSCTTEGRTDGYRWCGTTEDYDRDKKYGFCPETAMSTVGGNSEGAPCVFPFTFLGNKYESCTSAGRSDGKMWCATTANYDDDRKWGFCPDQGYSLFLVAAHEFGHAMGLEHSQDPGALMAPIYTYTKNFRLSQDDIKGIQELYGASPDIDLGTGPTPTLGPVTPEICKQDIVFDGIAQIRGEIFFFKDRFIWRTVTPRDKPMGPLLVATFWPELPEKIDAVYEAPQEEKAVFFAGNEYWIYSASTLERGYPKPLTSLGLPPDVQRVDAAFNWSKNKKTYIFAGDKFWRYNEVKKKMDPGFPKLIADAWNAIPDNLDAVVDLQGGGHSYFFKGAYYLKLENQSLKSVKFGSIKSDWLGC
Luciferin 4-monooxygenase, sequence (P08659 whole entry): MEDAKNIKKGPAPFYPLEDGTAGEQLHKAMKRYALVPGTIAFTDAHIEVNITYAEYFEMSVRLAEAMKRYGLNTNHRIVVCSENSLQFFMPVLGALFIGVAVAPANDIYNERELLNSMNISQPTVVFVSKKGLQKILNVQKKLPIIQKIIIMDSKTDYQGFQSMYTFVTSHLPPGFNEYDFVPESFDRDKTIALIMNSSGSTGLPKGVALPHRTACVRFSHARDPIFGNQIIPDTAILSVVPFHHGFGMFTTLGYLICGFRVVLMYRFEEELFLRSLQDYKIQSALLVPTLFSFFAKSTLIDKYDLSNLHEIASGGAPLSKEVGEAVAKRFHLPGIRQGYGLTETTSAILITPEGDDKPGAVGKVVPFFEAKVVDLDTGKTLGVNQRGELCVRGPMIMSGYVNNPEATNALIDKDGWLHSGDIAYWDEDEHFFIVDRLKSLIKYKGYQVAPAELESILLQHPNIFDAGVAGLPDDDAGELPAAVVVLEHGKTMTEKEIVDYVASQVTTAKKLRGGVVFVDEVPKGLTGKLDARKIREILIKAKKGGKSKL
Paired box protein Pax-8, sequence (Q06710 whole entry): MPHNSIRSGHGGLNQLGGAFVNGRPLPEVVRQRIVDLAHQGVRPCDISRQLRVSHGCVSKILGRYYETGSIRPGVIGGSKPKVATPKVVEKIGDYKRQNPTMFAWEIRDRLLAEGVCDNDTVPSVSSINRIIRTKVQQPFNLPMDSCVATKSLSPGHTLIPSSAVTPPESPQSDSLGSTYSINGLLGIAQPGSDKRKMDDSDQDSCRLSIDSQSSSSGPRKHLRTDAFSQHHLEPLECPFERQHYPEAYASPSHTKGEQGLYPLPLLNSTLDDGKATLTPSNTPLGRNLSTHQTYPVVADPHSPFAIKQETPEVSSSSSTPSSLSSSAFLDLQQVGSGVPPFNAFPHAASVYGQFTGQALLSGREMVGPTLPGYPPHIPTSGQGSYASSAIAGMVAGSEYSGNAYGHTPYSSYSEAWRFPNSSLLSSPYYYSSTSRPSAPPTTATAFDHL
Induced myeloid leukemia cell differentiation protein Mcl-1, sequence (Q07820 whole entry): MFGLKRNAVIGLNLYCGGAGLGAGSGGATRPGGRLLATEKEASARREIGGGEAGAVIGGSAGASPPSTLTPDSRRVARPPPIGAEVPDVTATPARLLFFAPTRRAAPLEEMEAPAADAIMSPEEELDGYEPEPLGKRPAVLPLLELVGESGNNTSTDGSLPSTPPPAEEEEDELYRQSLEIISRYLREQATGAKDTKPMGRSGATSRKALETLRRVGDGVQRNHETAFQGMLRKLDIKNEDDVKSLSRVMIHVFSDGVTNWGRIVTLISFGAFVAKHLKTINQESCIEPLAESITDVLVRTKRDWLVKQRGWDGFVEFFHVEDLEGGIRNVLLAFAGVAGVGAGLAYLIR

With `COc1ccc(C(=O)/N=c2\nc3ccccn3s2)cc1` the EC50 [1] was 1.07 µM (active), the EC50 [2] was 5.24 µM (active) and the AC50 [3] was 0.768 µM (active).
With `NC1=NC(=O)/C(=C/c2cn(CCC(=O)O)nc2-c2ccc(Cl)cc2)S1` the IC50 [4] was 4.92 µM (active), the IC50 [5] was 44.7 µM (active) and the IC50 [6] was > 100 µM (inactive). The IC50 [7] was 40.4 µM (active).
For `O=C(N/N=C/C(Br)=C/c1ccccc1)c1ccc([N+](=O)[O-])cc1`, the IC50 [8] was 10.4 µM (active).
In the case of `CC(C)(C)c1ccc(C(=O)OCCNC(=O)c2c(Cl)nc3ccccn23)cc1`, the IC50 [9] is reported as 5.51 µM (active) and the IC50 [10] is reported as 4.36 µM (active).
For `O=C(NC(=S)Nc1nc2c(s1)CCCC2)c1ccccc1`, the EC50 [11] was 0.313 µM (active), the EC50 [12] was 0.143 µM (active) and the EC50 [13] was < 0.1 µM (active). For the same compound, the EC50 [14] was 0.341 µM (active) and the EC50 [15] was 0.32 µM (active).
In the case of `Cc1cc(Nc2cccc(F)c2)nc(NCc2ccccc2)n1`, the EC50 [16] is reported as 11.1 µM (active), the EC50 [17] is reported as 10.4 µM (active) and the AC50 [18] is reported as 3.9 µM (active).
For `CC(C)COc1ccc(C(=O)N/C(=C\c2cccc([N+](=O)[O-])c2)C(=O)O)cc1`, the IC50 [9] was 8.63 µM (active) and the IC50 [10] was 9.1 µM (active).
For `C/C(=N\Nc1nc(N2CCOCC2)nc(N2CCOCC2)n1)c1ccc([N+](=O)[O-])cc1`, the IC50 [9] was 14.5 µM (active) and the IC50 [10] was 17.9 µM (active).
In the case of `O=C(Nc1cccc(F)c1)N1CCCCN2[C@@H](CO)[C@@H](c3ccc(C#Cc4ccccc4)cc3)[C@@H]2C1`, the AC50 [19] is reported as 10.1 µM (active), the AC50 [20] is reported as 5.97 µM (active) and the AC50 [21] is reported as 13.4 µM (active). For the same compound, the AC50 [22] was 21.4 µM (active).
With `COc1cccc2cc(C(=O)Nc3ccc(F)cc3)/c(=N/c3ccc(C(=O)O)cc3)oc12` the IC50 [5] was 48.2 µM (active), the IC50 [6] was > 100 µM (inactive) and the IC50 [7] was 21.7 µM (active).
With `COC(=O)C1C(=O)c2c([nH]c(C(=O)OCCSC)c2C)CC1C` (configuration not stated) the EC50 [11] was 1.34 µM (active), the EC50 [23] was < 0.1 µM (active) and the EC50 [12] was 21.5 µM (active). For the same compound, the EC50 [13] was 31.9 µM (active), the EC50 [14] was 0.963 µM (active) and the EC50 [15] was > 12 µM (not active).
With `CCn1cc(C(=O)O)c(=O)c2cc(F)c(N3CCN(C(=S)NC(=O)c4ccccc4F)CC3)cc21` the IC50 [8] was 6.64 µM (active).
In the case of `CCC(C)NCCCOc1cc(Cl)ccc1Cl` (configuration not stated), the AC50 [24] is reported as > 20 µM (inactive).
